Each compound was assayed against human ACC2 (Homo sapiens (Human), UniProt O00763) (assay: ACC2 assay, spectrophotometric 384 well assay (NADH-linked kinetic method)). Settings: human ACC2 construct lacking the 128 N-terminal amino acids; coupled lactate dehydrogenase/pyruvate kinase reaction, 340 nm, 25° C.
Type: biochemical
Outline: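 N-terminally truncated human ACC2 (lacking 128 residues), expressed in insect cells, was coupled to pyruvate kinase/lactate dehydrogenase, with NADH and acetyl-CoA at 2000 μM and ATP at 500 μM final. The OD340 decrease was followed over 15 min at 25 °C. Slopes were normalised to vehicle and no-acetyl-CoA controls, and IC50 came from four-parameter regression.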

Sequence of human ACC2 (O00763 129-2458): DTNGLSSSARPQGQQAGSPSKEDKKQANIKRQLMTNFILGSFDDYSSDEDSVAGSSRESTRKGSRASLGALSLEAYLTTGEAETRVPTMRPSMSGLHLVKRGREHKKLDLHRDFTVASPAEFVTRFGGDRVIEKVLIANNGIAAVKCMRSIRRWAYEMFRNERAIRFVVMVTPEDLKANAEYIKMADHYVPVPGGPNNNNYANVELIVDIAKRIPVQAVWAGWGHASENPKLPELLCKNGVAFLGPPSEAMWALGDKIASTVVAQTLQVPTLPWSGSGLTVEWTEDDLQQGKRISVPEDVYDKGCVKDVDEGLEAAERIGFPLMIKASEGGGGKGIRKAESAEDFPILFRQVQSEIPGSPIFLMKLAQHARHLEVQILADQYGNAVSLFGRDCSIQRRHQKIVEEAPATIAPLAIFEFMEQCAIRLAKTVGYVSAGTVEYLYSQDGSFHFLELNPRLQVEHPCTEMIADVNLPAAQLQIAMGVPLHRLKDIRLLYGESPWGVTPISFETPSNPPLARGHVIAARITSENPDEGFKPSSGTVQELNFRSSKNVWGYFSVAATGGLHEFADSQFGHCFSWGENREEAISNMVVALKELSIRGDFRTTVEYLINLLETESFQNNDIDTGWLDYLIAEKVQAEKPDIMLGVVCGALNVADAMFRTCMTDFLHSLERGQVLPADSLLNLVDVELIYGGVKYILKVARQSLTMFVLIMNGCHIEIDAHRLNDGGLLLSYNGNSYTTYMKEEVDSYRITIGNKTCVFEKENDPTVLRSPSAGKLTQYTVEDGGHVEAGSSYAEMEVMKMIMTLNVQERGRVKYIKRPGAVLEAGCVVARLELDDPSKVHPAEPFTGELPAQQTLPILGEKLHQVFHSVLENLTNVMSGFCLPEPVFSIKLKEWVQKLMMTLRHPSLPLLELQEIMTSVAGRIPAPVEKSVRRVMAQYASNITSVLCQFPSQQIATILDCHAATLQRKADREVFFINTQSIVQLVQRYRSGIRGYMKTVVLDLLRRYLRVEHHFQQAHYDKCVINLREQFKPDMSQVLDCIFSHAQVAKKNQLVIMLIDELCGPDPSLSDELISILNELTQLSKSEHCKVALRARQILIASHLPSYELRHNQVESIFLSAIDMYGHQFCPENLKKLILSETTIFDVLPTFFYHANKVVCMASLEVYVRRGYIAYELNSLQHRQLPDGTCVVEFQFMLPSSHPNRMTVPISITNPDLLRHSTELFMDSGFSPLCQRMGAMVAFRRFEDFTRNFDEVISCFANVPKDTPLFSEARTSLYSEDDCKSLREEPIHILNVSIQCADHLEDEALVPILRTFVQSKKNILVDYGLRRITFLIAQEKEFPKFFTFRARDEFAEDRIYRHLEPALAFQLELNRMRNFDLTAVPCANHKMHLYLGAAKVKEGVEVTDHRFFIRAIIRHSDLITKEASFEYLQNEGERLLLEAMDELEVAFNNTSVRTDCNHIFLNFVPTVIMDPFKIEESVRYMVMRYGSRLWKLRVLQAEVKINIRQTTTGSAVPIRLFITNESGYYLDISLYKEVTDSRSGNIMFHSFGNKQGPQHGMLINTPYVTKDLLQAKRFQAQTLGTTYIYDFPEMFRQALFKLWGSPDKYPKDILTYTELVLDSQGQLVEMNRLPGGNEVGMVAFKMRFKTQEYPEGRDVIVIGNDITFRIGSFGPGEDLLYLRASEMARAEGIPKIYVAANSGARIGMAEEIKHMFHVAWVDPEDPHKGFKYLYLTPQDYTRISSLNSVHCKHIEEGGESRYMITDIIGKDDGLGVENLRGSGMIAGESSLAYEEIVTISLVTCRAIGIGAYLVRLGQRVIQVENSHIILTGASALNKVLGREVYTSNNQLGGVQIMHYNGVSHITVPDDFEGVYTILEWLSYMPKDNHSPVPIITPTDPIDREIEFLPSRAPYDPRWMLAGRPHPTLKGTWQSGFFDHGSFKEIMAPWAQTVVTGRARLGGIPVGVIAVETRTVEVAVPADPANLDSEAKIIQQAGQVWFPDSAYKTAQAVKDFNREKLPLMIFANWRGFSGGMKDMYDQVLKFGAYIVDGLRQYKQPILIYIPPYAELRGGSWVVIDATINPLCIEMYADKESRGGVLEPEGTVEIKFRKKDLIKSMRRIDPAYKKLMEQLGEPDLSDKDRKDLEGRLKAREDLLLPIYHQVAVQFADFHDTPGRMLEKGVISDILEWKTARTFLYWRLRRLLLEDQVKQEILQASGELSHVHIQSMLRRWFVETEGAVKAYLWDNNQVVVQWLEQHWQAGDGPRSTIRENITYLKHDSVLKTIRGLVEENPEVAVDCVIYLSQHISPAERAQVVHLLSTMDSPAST

Row | IC50 [nM] | SMILES
1 | 607 | CC(C)Oc1cc(N2CCC(Oc3ccc([C@H](C)NC(=O)C4(C(F)(F)F)CC4)cc3)C2)ccn1 (some centres unmarked) [Example 2.17]
2 | 505 | CCCN(C)c1nc(N2CC[C@@H](Oc3ccc([C@H](C)NC(C)=O)cc3)C2)c(F)cc1F [Example 10.7]
3 | 154 | CC(=O)N[C@@H](C)c1ccc(OC2CCN(c3cccc(C(F)F)n3)C2)cc1 (some centres unmarked) [Example 1.64]
4 | 285 | CC(=O)N[C@@H](C)c1ccc(O[C@@H]2CCN(c3cc(N(C)C)ncc3F)C2)cc1 [Example 10.24]
5 | 110 | CC(=O)N[C@@H](C)c1ccc(O[C@@H]2CCN(c3ccnc(OCC(C)C)c3F)C2)cc1 [Example 9.50]
6 | 59 | CC(=O)Nc1nc(C)c(C(=O)N[C@@H](C)c2ccc(O[C@@H]3CCN(c4ccnc(OCC5CC5)c4)C3)cc2)s1 [Example 1.43]
7 | 105 | C[C@H](NC(=O)c1ccno1)c1ccc(OC2CCN(c3ccnc(OCC4CC4)c3)C2)cc1 (some centres unmarked) [Example 2.85]
8 | 39 | CC(=O)N[C@@H](C)c1ccc(O[C@@H]2CCN(c3ccnc(OC4CCC4)c3)C2)cc1 [Example 9.1]
9 | 199 | CC(C)Oc1cc(N2CCC(Oc3ccc([C@H](C)NC(=O)c4cncs4)cc3)C2)ccn1 (some centres unmarked) [Example 2.24]
10 | 390 | CC#CCCOc1cc(N2CC[C@@H](Oc3ccc([C@H](C)NC(C)=O)cc3)C2)ccn1 [Example 9.5]
11 | 55 | CC(=O)N[C@@H](C)c1ccc(O[C@@H]2CCN(c3ccnc(OCC4CC4)c3C)C2)cc1 [Example 9.57]
12 | 150 | CC(=O)N[C@@H](C)c1ccc(O[C@@H]2CCN(c3ccnc(N4CCOCC4)c3F)C2)cc1 [Example 10.15]
13 | 827 | CC(=O)N[C@@H](C)c1ccc(O[C@@H]2CCN(c3nc(N4CCCCC4)c(F)cc3F)C2)cc1 [Example 10.6]
14 | 50 | CCC(=O)N[C@@H](C)c1ccc(OC2CCN(c3ccnc(OCC4CC4)c3)C2)cc1 (some centres unmarked) [Example 2.66]
15 | 668 | CC(=O)N[C@@H](C)c1ccc(O[C@@H]2CCN(c3ccnc(OCC4CCCO4)c3)C2)cc1 (some centres unmarked) [Example 9.49]
16 | 26 | CC(=O)N[C@@H](C)c1ccc(O[C@@H]2CCN(c3ccnc(NCC4CC4)c3Cl)C2)cc1 [Example 1.138]
17 | 114 | CC(=O)N[C@@H](C)c1ccc(OC2CCN(c3ccc(OC4CCC4)cn3)C2)cc1 (some centres unmarked) [Example 1.26]
18 | 389 | CC(C)Oc1cc(N2CCC(Oc3ccc([C@H](C)NC(=O)C4(C)CC4)cc3)C2)ccn1 (some centres unmarked) [Example 2.21]
19 | 45 | CCN(C)c1nccc(N2CC[C@@H](Oc3ccc([C@H](C)NC(C)=O)cc3)C2)c1F [Example 10.14]
20 | 37 | COCC(=O)Nc1nc(C)c(C(=O)N[C@@H](C)c2ccc(OC3CCN(c4ccc(OCC5CC5(F)F)cn4)C3)cc2)s1 (some centres unmarked) [Example 2.120]
21 | 144 | C[C@H](NC(=O)N1CCOCC1)c1ccc(OC2CCN(c3ccnc(OCC4CC4)c3)C2)cc1 (some centres unmarked) [Example 3.12]
22 | 963 | CNc1cccc(N2CC[C@@H](Oc3ccc([C@H](C)NC(C)=O)cc3)C2)n1 [Example 10.21]
23 | 140 | C[C@H](NC(=O)C(F)F)c1ccc(OC2CCN(c3ccnc(OCC(F)F)c3)C2)cc1 (some centres unmarked) [Example 2.97]
24 | 714 | C[C@H](NC(=O)c1ccnnc1)c1ccc(OC2CCN(c3ccnc(OCC(F)F)c3)C2)cc1 (some centres unmarked) [Example 2.108]
25 | 456 | C[C@H](NC(=O)c1cncnc1)c1ccc(OC2CCN(c3ccnc(OCC4CC4)c3)C2)cc1 (some centres unmarked) [Example 2.79]
26 | 70 | CCCOc1cc(N2CCC(Oc3ccc([C@H](C)NC(C)=O)cc3)C2)c(F)cn1 (some centres unmarked) [Example 1.72]
27 | 116 | CCC(=O)Nc1nc(C)c(C(=O)N[C@@H](C)c2ccc(O[C@@H]3CCN(c4ccnc(NCC(F)F)c4Cl)C3)cc2)s1 [Example 1.143]
28 | 421 | CCC(=O)Nc1nc(C)c(C(=O)N[C@@H](C)c2ccc(O[C@@H]3CCN(c4ccnc(NCC(F)F)c4F)C3)cc2)s1 [Example 1.141]
29 | 145 | CC(C)Oc1cc(N2CCC(Oc3ccc([C@H](C)NC(=O)c4cnn(C)c4)cc3)C2)ccn1 (some centres unmarked) [Example 2.4]

Reference: US8877741B2, “Pyrrolidine derivatives, pharmaceutical compositions and uses thereof” (Boehringer Ingelheim International GmbH, priority 2013, dated 2014)
